Patent US6939668B2, “Compositions and methods for treatment of lung transplants” (priority 2001, dated 2005)

Key:
Assay type in all cases: cell-based
B. cepacia [1] = assay: B. cepacia binding to normal human bronchial epithelial (NHBE) cells; details: for % Binding of control / % Inhibition: NHBE cells, mean of 4 experiments (range)
Description: Normal human bronchial epithelial (NHBE) cells were grown in 48 well plates. […] Unbound bacteria were removed by washing 6 times with PBS and the bound bacteria were desorbed in 1 ml of 0.5% triton X-100 and quantitated by dilution plating. Results are shown in Table 3 and represent the mean of 4 independent experiments and the values in parenthesis represent the range of experimental values.

[2] = tested on: B. cepacia ATCC 25416 (genomovar I); assay: microbe, parasite or virus in culture; design: inhibition: dose or concentration left out as unconfirmed
Description: (§1) B. cepacia (10^7-10^8 cfu) in 5 μl was added to the epithelial surface of tracheal explants, incubated for 2 h at 37° C. and gently washed with PBS 5 times to remove unbound bacteria.
(§2) Bound bacteria were desorbed with 0.25% triton X-100, serially diluted and plated on B. cepacia isolation agar, and incubated at 37° C. for 72 hours. Colonies were counted to calculate the number of bacteria bound per explant. When inhibitors were used, explants were incubated with inhibitors for 1 hour prior to the addition of bacteria.
(§3) Tracheal explants were preincubated for 1 hour with dextran 4K or 40K or xylitol. Bacteria (10^7 or 10^8 cfu) were then incubated for 2 hours with the tracheal explants and the number of bound bacteria per explant was determined as described above. Bacterial binding to explants preincubated with culture medium alone was considered as 0% inhibition (FIG. 1, each bar represents the mean of 14 to 17 independent experiments using trachea from 5 to 6 donors. Data were analyzed by the mixed model analysis of variance using MIXED procedure in SAS statistical software).
(§4) Explants were obtained from lungs removed from donors for transplantation. All lungs were preserved using LPD lung preservation solution (Perfadex®, Vitrolife, Gotenberg, Sweden) (Fischer et al. (2001), J. Thorac. Cardiovasc. Surg., v. 121, pp. 594-596). Segments of donor trachea that were trimmed off the lung before implantation were used in this study. Airway explants were prepared from donor tracheal segments, which were cut into approximately 4×4 mm^2 pieces, placed in transwells with the epithelial surface facing up and maintained in BEGM at an air/liquid interface for a maximum of 24 h at 37° C., 5% CO2. To evaluate the morphological status of the airway explants at this time, the explants were fixed in 10% buffered formalin and embedded in agar-paraffin. Five micron thick sections were stained with hematoxylin and eosin and examined under a light microscope (Leica, Scarborough, ON). • Effect of dextrans and xylitol on the viability of B. cepacia: B. cepacia (10^7 cfu) was suspended in BEGM containing 0, 2, 4, 6, 7 or 8% of dextran or xylitol for 2 h and then the number of viable bacteria was determined by colony counting method. • Binding of B. cepacia to airway explants: B. cepacia suspended in PBS (5 μl containing 10^8 cfu) was added in the center of the epithelial surface of airway explants and incubated for 2 h at 37° C., 5% CO2. The explants were washed gently 6 times with sterile PBS to remove unbound bacteria, and bound bacteria desorbed by incubating in 1 ml of 0.25% triton X-100 for 10 min at RT. Samples were serially diluted, and plated on B. cepacia isolation agar (Henry et al. (1997), J. Clin. Microbiol., v. 35, pp. 614-619). After 72 h of incubation at 37° C., bacterial colonies were counted to determine the number of bacteria (cfu) bound per explant.
(§5) In inhibition assays, epithelia of airway explants were pre-incubated with varying concentrations of potential inhibitors, dextran (4, 10 or 40 kDa) or xylitol for 1 h at 37° C., then bacteria were added and the assay continued as described above. Controls (no inhibitor added) in each experiment were set to a value of 100% binding, to calculate the % inhibition caused by inhibitors. Statistical analysis was carried out using Statsview and the unpaired student's t-test was used to calculate the p value. • Immunological detection of bound bacteria or mucin in airway explants: Paraffin sections of airway explants incubated with PBS or B. cepacia in presence or absence of inhibitors were deparaffinized, rehydrated and heated under pressure for 1.5 min in 10 mM citrate buffer pH 6.0 (Shi et al. (1991), J. Histochem. Cytochem., v. 39, pp. 741-748) to retrieve antigenic sites.

[3] = tested on: B. cepacia C5393 (genomovar II); assay: microbe, parasite or virus in culture; design: inhibition: dose or concentration left out as unconfirmed
Description: as §1, §2, §3, §4, §5

[4] = tested on: B. cepacia CEP040 (genomovar V); assay: microbe, parasite or virus in culture; design: inhibition: dose or concentration left out as unconfirmed
Description: as §1, §2, §3, §4, §5

[5] = tested on: B. cepacia FC473 (genomovar IV); assay: microbe, parasite or virus in culture; design: inhibition: dose or concentration left out as unconfirmed
Description: as §1, §2, §3, §4, §5

[6] = tested on: B. cepacia isolate BC7 (genomovar III); assay: microbe, parasite or virus in culture; design: inhibition: dose or concentration left out as unconfirmed; details: for Percent Inhibition of binding to tracheal explants: isolate BC7, genomovar III
Description: as §1, §2, §3, §4, §5

B. cepacia [7] = assay: Effect of dextrans and xylitol on the viability of B. cepacia; details: 60 to 80 mg/ml, 2 h, compared to BEGM alone
Description: as §4, with “To evaluate the morphological status of the airway explants at this time, the explants were fixed in 10% buffered formalin and embedded in agar-paraffin.” left out, “The explants were washed gently 6 times with sterile PBS to remove unbound bacteria, and bound bacteria desorbed by incubating in 1 ml of 0.25% triton X-100 for 10 min at RT. Samples were serially diluted, and plated on B. cepacia isolation agar (Henry et al. (1997), J. Clin. Microbiol., v. 35, pp. 614-619).” left out

[8] = Burkholderia cepacia, Epithelial cell, read-out: % Inhibition of B. cepacia isolates binding to tracheal epithelial cells

N[C@H]1[C@H](O[C@H]2[C@H](O)[C@@H](N)[C@H](O[C@H]3[C@H](O)[C@@H](N)[C@H](O[C@H]4[C@H](O)[C@@H](N)C(O)O[C@@H]4CO)O[C@@H]3CO)O[C@@H]2CO)O[C@H](CO)[C@@H](O)[C@@H]1O (stereo partly shown) [chitotetraose]
inhibitory effect on binding of B. cepacia to NHBE cells (B. cepacia [1]; 0-100 μg/ml): None of these sugars inhibited the binding

CC(=O)N[C@H]1[C@H](O[C@H]2[C@H](O)[C@@H](NC(C)=O)[C@H](O[C@H]3[C@H](O)[C@@H](NC(C)=O)C(O)O[C@@H]3CO)O[C@@H]2CO)O[C@H](CO)[C@@H](O[C@@H]2O[C@H](CO)[C@@H](O[C@@H]3O[C@H](CO)[C@@H](O[C@@H]4O[C@H](CO)[C@@H](O)[C@H](O)[C@H]4NC(C)=O)[C@H](O)[C@H]3NC(C)=O)[C@H](O)[C@H]2NC(C)=O)[C@@H]1O (stereo partly shown) [chitohexose]
inhibitory effect on binding of B. cepacia to NHBE cells (B. cepacia [1]; 0-100 μg/ml): None of these sugars inhibited the binding

O=C[C@H](O)[C@@H](O)[C@@H](O)[C@H](O)CO [Galactose]
inhibitory effect on binding of B. cepacia to NHBE cells (B. cepacia [1]; 0 to 1.8%/ml): None of these sugars inhibited the binding

CC(=O)N[C@@H]1[C@@H](O)[C@H](O[C@@H]2O[C@H](CO)[C@@H](O[C@@H]3O[C@H](CO)[C@@H](O[C@@H]4O[C@H](CO)[C@@H](O[C@@H]5O[C@H](CO)[C@@H](O)[C@H](O)[C@H]5NC(C)=O)[C@H](O)[C@H]4NC(C)=O)[C@H](O)[C@H]3NC(C)=O)[C@H](O)[C@H]2NC(C)=O)[C@@H](CO)O[C@H]1O [chitopentose]
inhibitory effect on binding of B. cepacia to NHBE cells (B. cepacia [1]; 0-100 μg/ml): None of these sugars inhibited the binding

chitobiose
inhibitory effect on binding of B. cepacia to NHBE cells (B. cepacia [1]; 0-100 μg/ml): None of these sugars inhibited the binding

OC[C@@H](O)[C@H](O)[C@@H](O)CO [Xylitol]
inhibition ([2]; Burkholderia cepacia, ATCC25416, Epithelial cell, read-out: % Inhibition of B. cepacia isolates binding to tracheal epithelial cells): 82 ± 1.29%
Percent Inhibition of binding to tracheal explants ([2]; isolate ATCC 25416, genomovar I, inhibitor 8%): 84%
inhibition [3, 8]: 70 ± 6.78%
Percent Inhibition of binding to tracheal explants ([3]; isolate C5393, genomovar II, inhibitor 8%): 68%
inhibition [4, 8]: 70 ± 6.75%
Percent Inhibition of binding to tracheal explants ([4]; isolate CEP040, genomovar V, inhibitor 8%): 64%
inhibition [5, 8]: 70 ± 3.26%
Percent Inhibition of binding to tracheal explants ([5]; isolate FC473, genomovar IV, inhibitor 7%): 72%
inhibition of binding of BC7 to airway explants (in words) ([6]; 60 to 80 mg/ml, p<0.005 compared to PBS treated controls, FIG. 4b): significantly inhibited the binding
inhibition [6, 8]: 58 ± 10.7%
inhibition at 80000 µg/mL ([6]; Burkholderia cepacia, read-out: inhibition of binding of B. cepacia isolate BC7 to airway explants): 67%
inhibition of B. cepacia BC7 binding to tracheal explants (in words) ([6]; Example 1, FIG. 1, 1 hour preincubation, p value <0.0001): effective in causing inhibition of bacterial binding
Percent Inhibition of binding to tracheal explants ([6]; inhibitor 7%): 76%
Percent Inhibition of binding to tracheal explants ([6]; inhibitor 8%): 81%
viability of B. cepacia (B. cepacia [7]): no change in viability
% Binding of control (B. cepacia [1]; xylitol 6%): 64 (29-105) %
% Inhibition (B. cepacia [1]; xylitol 6%): 36 (0-71) %
% Binding of control (B. cepacia [1]; xylitol 7%): 56 (54-58) %
% Inhibition (B. cepacia [1]; xylitol 7%): 44 (42-44) %
% Binding of control (B. cepacia [1]; xylitol 8%): 33 (23-43) %
% Inhibition (B. cepacia [1]; xylitol 8%): 67 (57-77) %
% Binding of control (B. cepacia [1]; xylitol 10%): 23 (18-29) %
% Inhibition (B. cepacia [1]; xylitol 10%): 77 (71-82) %
